Reference: US4122034A, “Antimicrobial compositions” (Schering Corporation, priority 1975, dated 1978)
In brackets after ≈: the same amount, converted by molar mass.

What was measured:
Trychomonas vaginalis = assay: In vitro Anti-Trichomonal activity (Table VII); type: cell-based
Procedure: (§1) All the tests were carried out and (when necessary) scored under standard conditions. "MIC" means "minimum inhibitory concentration."
In vitro Anti-Trichomonal Activity of some 2-aminoalkyl-3-
phenyl-indenes of formula II.

[1] = Acute toxicity in mice (Table V); details: mouse, in vivo
Procedure: as §1
Acute Toxicity of 2-aminoalkyl-3-phenylindoles of the formula I

T. mentagrophytes = assay: Effect against topical T. mentagrophytes infections in guinea pigs (Table VI); type: in vivo; parameters: Average Sum of lesion scores, Days 1-5 / Average Sum of lesion scores, Days 1-10: scale not given here; details: for Average Sum of lesion scores, Days 1-5: untreated controls 14.8; for Average Sum of lesion scores, Days 1-10: untreated controls 38.2
Procedure: as §1
Effect of some 2-aminoalkyl-3-phenylindoles of the formula II
against topical T. mentagrophytes infections in guinea pigs.

Clostridium septicum = assay: In vitro activity against anaerobes in fluid Thioglycollate medium (Table II); type: cell-based
Procedure, shortened: (§2)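 Under standard conditions, each organism was exposed to the test compounds and the minimum inhibitory concentration was recorded.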

[2] = test system: Bacteroides melaninogenicus; assay: as above; type: cell-based
Procedure, shortened: as §2

Bacteroides fragilis = assay: as above; type: cell-based
Procedure, shortened: as §2

Eubacterium lentum = assay: as above; type: cell-based; details: Eggerthella lenta
Procedure, shortened: as §2

Peptostreptococcus = assay: as above; type: cell-based
Procedure, shortened: as §2

Clostridium novyi = assay: as above; type: cell-based
Procedure, shortened: as §2

Clostridium histolyticum = assay: as above; type: cell-based; details: Hathewaya histolytica
Procedure, shortened: as §2

Bacteroides corrodens = assay: as above; type: cell-based; details: Eikenella corrodens
Procedure, shortened: as §2

Proteus mirabilis = assay: In vitro antibacterial activity, dilution in Mueller Hinton Agar (Table I); type: cell-based; details: Mueller Hinton Agar pH 7.4
Procedure, shortened: (§3)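 Reported values: minimum inhibitory concentration. Plates were at pH 7.4, with scoring done per standard practice where required.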

Staphylococcus aureus = assay: as above; type: cell-based; details: Mueller Hinton Agar pH 7.4
Procedure, shortened: as §3

Proteus vulgaris = assay: as above; type: cell-based; details: strain Napol, Mueller Hinton Agar pH 7.4
Procedure, shortened: as §3

Klebsiella = assay: as above; type: cell-based
Procedure, shortened: as §3

Enterococcus = assay: as above; type: cell-based
Procedure, shortened: as §3

Pseudomonas acruginosa = assay: as above; type: cell-based
Procedure, shortened: as §3

Streptococcus pyogenes = assay: as above; type: cell-based
Procedure, shortened: as §3

[3] = test system: Trichophyton schoenleinii; assay: In vitro antifungal activity, dilutions in Sabouraud's Dextrose Broth (Table IV); type: cell-based; details: 96 h
Procedure, shortened: (§4)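 Compounds are serially diluted in broth and the organism is exposed under standard conditions. Growth is scored as needed, and the minimum inhibitory concentration is recorded.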

Trichophyton megninii = assay: as above; type: cell-based; details: Trichophyton rubrum; after 96 hours
Procedure, shortened: as §4

Aspergillus niger 6275 = assay: as above; type: cell-based; details: after 96 hours
Procedure, shortened: as §4

Trichophyton ascoides = assay: as above; type: cell-based; details: after 96 hours
Procedure, shortened: as §4

Trichophyton rubrum = assay: as above; type: cell-based; details: 96 h
Procedure, shortened: as §4

Trichophyton tonsurans = assay: as above; type: cell-based; details: after 96 hours
Procedure, shortened: as §4

Trichophyton ferrugineum = assay: as above; type: cell-based; details: Microsporum ferrugineum; after 96 hours
Procedure, shortened: as §4

[4] = test system: Trichophyton mentagrophytes; assay: as above; type: cell-based; details: 96 h
Procedure, shortened: as §4

Tricoderm sp. = assay: as above; type: cell-based; details: after 96 hours
Procedure, shortened: as §4

Microsporum distortum = assay: as above; type: cell-based; details: after 96 hours
Procedure, shortened: as §4

Trichophyton discoides = assay: as above; type: cell-based; details: after 96 hours
Procedure, shortened: as §4

Trichophyton soudenense = assay: as above; type: cell-based; details: after 96 hours
Procedure, shortened: as §4

Aspergillus sp. No. 3 = assay: as above; type: cell-based; details: after 96 hours
Procedure, shortened: as §4

Microsporum nanum = assay: as above; type: cell-based; details: Nannizzia nana; after 96 hours
Procedure, shortened: as §4

Trichophyton gallinae = assay: as above; type: cell-based; details: after 96 hours
Procedure, shortened: as §4

Epidermophyton floccosum = assay: as above; type: cell-based; details: after 96 hours
Procedure, shortened: as §4

`NCc1[nH]c2ccc(Cl)cc2c1-c1ccccc1` [C, 2-(1-aminomethyl)-5-chloro-3-phenylindole] showed an IC50 (Trychomonas vaginalis; 50% suppression, read-out: Minimal Level to Produce 50% Suppression) of 30 µg/mL (≈ 117 µM), an IC90 (Trychomonas vaginalis; 90% suppression, read-out: Minimal Level to Produce 90% Suppression) of 38 µg/mL (≈ 148 µM) and an LD50 ([1]; Oral) greater than 1000 mg/kg. The LD50 ([1]; ip, I.P.) was 100 mg/kg, the LD50 ([1]; sc, S.C.) was 600 mg/kg and the “Average No. of Days to become negative, Cultures” value (T. mentagrophytes; concentration 1%) was 12.4 days. For the same molecule, the “Average No. of Days to become negative, Lesion” value (T. mentagrophytes; concentration 1%) was 14.4 days, the “Average Sum of lesion scores, Days 1-5” value (T. mentagrophytes; concentration 1%) was 13.0 and the “Average Sum of lesion scores, Days 1-10” value (T. mentagrophytes; concentration 1%) was 25.0. For the same molecule, the “Average No. of Days to become negative, Cultures” value (T. mentagrophytes; concentration 4%) was 5.6 days, the “Average No. of Days to become negative, Lesion” value (T. mentagrophytes; concentration 4%) was 7.4 days and the “Average Sum of lesion scores, Days 1-5” value (T. mentagrophytes; concentration 4%) was 10.0. The “Average Sum of lesion scores, Days 1-10” value (T. mentagrophytes; concentration 4%) was 11.8, the MIC (Clostridium septicum; 48 hrs) was 3 µg/mL (≈ 11.7 µM) and the MIC (Clostridium septicum; 72 hrs) was 3 µg/mL (≈ 11.7 µM). It also gave an MIC ([2]; 48 hrs) of 7.5 µg/mL (≈ 29.2 µM), an MIC ([2]; 72 hrs) of 7.5 µg/mL (≈ 29.2 µM) and an MIC (Bacteroides fragilis; 48 hrs) of 3 µg/mL (≈ 11.7 µM). It also gave an MIC (Bacteroides fragilis; 72 hrs) of 3 µg/mL (≈ 11.7 µM), an MIC (Eubacterium lentum; 48 hrs) of 7.5 µg/mL (≈ 29.2 µM) and an MIC (Eubacterium lentum; 72 hrs) of 7.5 µg/mL (≈ 29.2 µM). For the same molecule, the MIC (Peptostreptococcus; 48 hrs) was 3 µg/mL (≈ 11.7 µM), the MIC (Peptostreptococcus; 72 hrs) was 3 µg/mL (≈ 11.7 µM) and the MIC (Clostridium novyi; 48 hrs) was 3 µg/mL (≈ 11.7 µM). The MIC (Clostridium novyi; 72 hrs) was 3 µg/mL (≈ 11.7 µM), the MIC (Clostridium histolyticum; 48 hrs) was 3 µg/mL (≈ 11.7 µM) and the MIC (Clostridium histolyticum; 72 hrs) was 3 µg/mL (≈ 11.7 µM). The MIC (Bacteroides corrodens; 48 hrs) was 3 µg/mL (≈ 11.7 µM), the MIC (Bacteroides corrodens; 72 hrs) was 3 µg/mL (≈ 11.7 µM) and the MIC (Proteus mirabilis; pH 7.4, strain Hard) was 7.5 µg/mL (≈ 29.2 µM). The MIC (Proteus mirabilis; pH 7.4, strain Peras) was 7.5 µg/mL (≈ 29.2 µM), the MIC (Staphylococcus aureus; 209P, pH 7.4, strain 209P) was 7.5 µg/mL (≈ 29.2 µM) and the MIC (Staphylococcus aureus; pH 7.4, strain 59N) was 7.5 µg/mL (≈ 29.2 µM). It also gave an MIC (Staphylococcus aureus; pH 7.4, strain Gray) of 7.5 µg/mL (≈ 29.2 µM), an MIC (Staphylococcus aureus; pH 7.4, strain Wood) of 7.5 µg/mL (≈ 29.2 µM) and an MIC (Staphylococcus aureus; pH 7.4, strain Zeigler) of 3 µg/mL (≈ 11.7 µM). For the same molecule, the MIC (Proteus vulgaris) was 7.5 µg/mL (≈ 29.2 µM), the MIC (Klebsiella; pH 7.4, strain 121, Mueller Hinton Agar pH 7.4) was 3 µg/mL (≈ 11.7 µM) and the MIC (Klebsiella; pH 7.4, strain 3020, Mueller Hinton Agar pH 7.4) was 3 µg/mL (≈ 11.7 µM). For the same molecule, the MIC (Klebsiella; pH 7.4, strain AD17, Mueller Hinton Agar pH 7.4) was 7.5 µg/mL (≈ 29.2 µM), the MIC (Klebsiella; pH 7.4, strain AD22, Mueller Hinton Agar pH 7.4) was 3 µg/mL (≈ 11.7 µM) and the MIC (Klebsiella; pH 7.4, strain G3694, Mueller Hinton Agar pH 7.4) was 3 µg/mL (≈ 11.7 µM). For the same molecule, the MIC (Enterococcus; pH 7.4, strain 373, Mueller Hinton Agar pH 7.4) was 7.5 µg/mL (≈ 29.2 µM), the MIC (Enterococcus; pH 7.4, strain 0928/72, Mueller Hinton Agar pH 7.4) was 7.5 µg/mL (≈ 29.2 µM) and the MIC (Pseudomonas acruginosa; pH 7.4, strain 130, Mueller Hinton Agar pH 7.4) was 17.5 µg/mL (≈ 68.2 µM). The MIC (Pseudomonas acruginosa; pH 7.4, strain 138, Mueller Hinton Agar pH 7.4) was 17.5 µg/mL (≈ 68.2 µM), the MIC (Pseudomonas acruginosa; pH 7.4, strain 762, Mueller Hinton Agar pH 7.4) was 37.5 µg/mL (≈ 146 µM) and the MIC (Pseudomonas acruginosa; pH 7.4, strain 8709, Mueller Hinton Agar pH 7.4) was 17.5 µg/mL (≈ 68.2 µM). It also gave an MIC (Pseudomonas acruginosa; pH 7.4, strain Trav. 1, Mueller Hinton Agar pH 7.4) of 17.5 µg/mL (≈ 68.2 µM), an MIC (Streptococcus pyogenes; pH 7.4, strain 27, Mueller Hinton Agar pH 7.4) of 7.5 µg/mL (≈ 29.2 µM) and an MIC (Streptococcus pyogenes; pH 7.4, strain C, Mueller Hinton Agar pH 7.4) of 7.5 µg/mL (≈ 29.2 µM). It also gave an MIC (Streptococcus pyogenes; pH 7.4, strain Cruz, Mueller Hinton Agar pH 7.4) of 3 µg/mL (≈ 11.7 µM), an MIC ([3]; strain 2, after 96 hours) of 3 µg/mL (≈ 11.7 µM) and an MIC ([3]; strain not given, after 96 hours) of 17.5 µg/mL (≈ 68.2 µM). It also gave an MIC (Trichophyton megninii) of 7.5 µg/mL (≈ 29.2 µM), an MIC (Aspergillus niger 6275) of 17.5 µg/mL (≈ 68.2 µM) and an MIC (Trichophyton ascoides) of 7.5 µg/mL (≈ 29.2 µM). It also gave an MIC (Trichophyton rubrum; strain 3, after 96 hours) of 17.5 µg/mL (≈ 68.2 µM), an MIC (Trichophyton rubrum; strain 360, after 96 hours) of 7.5 µg/mL (≈ 29.2 µM) and an MIC (Trichophyton rubrum; strain Blehl, after 96 hours) of 37.5 µg/mL (≈ 146 µM). It also gave an MIC (Trichophyton rubrum; strain Haggerty, after 96 hours) of 7.5 µg/mL (≈ 29.2 µM), an MIC (Trichophyton tonsurans) of 7.5 µg/mL (≈ 29.2 µM) and an MIC (Trichophyton ferrugineum) of 17.5 µg/mL (≈ 68.2 µM). For the same molecule, the MIC ([4]; strain A, after 96 hours) was 7.5 µg/mL (≈ 29.2 µM), the MIC ([4]; strain B, after 96 hours) was 7.5 µg/mL (≈ 29.2 µM) and the MIC ([4]; strain C, after 96 hours) was 3 µg/mL (≈ 11.7 µM). For the same molecule, the MIC ([4]; strain H377, after 96 hours) was 17.5 µg/mL (≈ 68.2 µM), the MIC ([4]; strain Young, after 96 hours) was 7.5 µg/mL (≈ 29.2 µM) and the MIC (Tricoderm sp.) was 7.5 µg/mL (≈ 29.2 µM). The MIC (Microsporum distortum) was 7.5 µg/mL (≈ 29.2 µM), the MIC (Trichophyton discoides) was 17.5 µg/mL (≈ 68.2 µM) and the MIC (Trichophyton soudenense) was 17.5 µg/mL (≈ 68.2 µM). It also gave an MIC (Aspergillus sp. No. 3) of 17.5 µg/mL (≈ 68.2 µM), an MIC (Microsporum nanum) of 3 µg/mL (≈ 11.7 µM) and an MIC (Trichophyton gallinae) of 37.5 µg/mL (≈ 146 µM). The MIC (Epidermophyton floccosum) was 17.5 µg/mL (≈ 68.2 µM).
